Like-named read-outs stand apart in the source and are kept apart here.
What was measured:
androgen receptor [1] = molecular target: T1, androgen receptor (Homo sapiens, UniProt P10275); test: Test of receptor binding activity ([3H]DHT competition, hydroxyapatite); settings: competition with 5 nM [3H]DHT, overnight at 4° C.
T1 construct: made in house; host or cells: insect cells (baculovirus expression system)
T1 sequence (P10275 1-920): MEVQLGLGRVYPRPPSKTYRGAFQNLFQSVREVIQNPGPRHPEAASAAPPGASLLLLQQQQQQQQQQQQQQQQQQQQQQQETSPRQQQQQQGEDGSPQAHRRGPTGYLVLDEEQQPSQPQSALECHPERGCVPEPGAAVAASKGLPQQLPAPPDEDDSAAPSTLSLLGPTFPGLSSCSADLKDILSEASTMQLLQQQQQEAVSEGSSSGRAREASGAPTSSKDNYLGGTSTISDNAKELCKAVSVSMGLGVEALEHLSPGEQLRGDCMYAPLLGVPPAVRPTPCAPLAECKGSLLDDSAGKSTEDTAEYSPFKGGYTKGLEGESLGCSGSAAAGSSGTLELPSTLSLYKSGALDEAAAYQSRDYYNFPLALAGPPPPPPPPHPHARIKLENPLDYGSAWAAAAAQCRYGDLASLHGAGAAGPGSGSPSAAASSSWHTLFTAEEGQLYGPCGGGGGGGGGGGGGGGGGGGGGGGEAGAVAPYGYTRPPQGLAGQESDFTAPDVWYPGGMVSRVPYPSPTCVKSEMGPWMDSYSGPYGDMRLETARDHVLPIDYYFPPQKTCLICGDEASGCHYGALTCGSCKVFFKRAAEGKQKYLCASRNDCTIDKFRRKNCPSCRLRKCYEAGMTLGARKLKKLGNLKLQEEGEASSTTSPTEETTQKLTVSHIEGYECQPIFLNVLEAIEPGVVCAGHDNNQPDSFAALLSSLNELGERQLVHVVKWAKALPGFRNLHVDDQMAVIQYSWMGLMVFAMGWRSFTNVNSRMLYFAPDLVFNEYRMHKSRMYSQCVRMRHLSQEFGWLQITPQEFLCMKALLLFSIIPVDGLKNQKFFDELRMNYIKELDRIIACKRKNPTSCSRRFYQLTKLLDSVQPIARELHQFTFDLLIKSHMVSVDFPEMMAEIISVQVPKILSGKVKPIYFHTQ
Method: Then the resultant mixture was added into the plates with a volume of 195 μl each well immediately after mixed thoroughly, and incubated overnight at 4° C. After the incubation was completed, 50 μl of hydroxyapatite (HA) solution (25% HA, 25 mM Na3PO4, pH7.4) was added to each well of the calandria, uniformly mixed by shaking, and incubated for 10 minutes, during the period it was shaken once every 3 minutes. The centrifugation was conducted at 2500 rpm for 3 minutes, the supernatant was sucked out, and the precipitate was reserved. Two hundred μl of the assay buffer was added into each well, the precipitate is avoided to be shaken as far as possible, and the centrifugation was conducted for 3 minutes again. The supernatant was sucked out, and the precipitate was reserved. The centrifugation was repeated once, the supernatant was sucked out, and the precipitate was reserved. 300 μl of scintillation fluid was added to each well.

androgen receptor [2] = test: Test of reporter gene expression (luciferase) in transfected MDA-MB-453 cells; format: cell-based, human
LNCaP cells = test: Test of prostate cancer cell proliferation induced by DHT (MTT); format: cell-based; settings: Homo sapiens, 144 h, read-out: IC50, inhibition of LNCaP cell proliferation stimulated by DHT
Method: LNCaP cells were cultured in RPMI1640 medium containing 10% FBS and 2 mM L-glutamine. The above medium was replaced by RPMI1640 medium containing 5% CD-FBS one day before experiment. When the cells grew to 90% confluence, the cells were added to 96-well plate with 4000 cells/90 μL/well after dissociated with trypsin, and were cultured at 37° C. overnight. The compounds to be tested were added to the cells with 10 μL/well after diluted to certain concentrations. […]. […] MTT solution (5 mg/mL) was added with 20 μL/well before the culture was completed. Light absorption values at 560 nm were measured with the reference wavelength of 690 nm.

[3] = read-out: Receptor binding (IC50)

Work on `O=C(CC(Nc1ccc([N+](=O)[O-])c(C(F)(F)F)c1)c1ccccc1)c1ccc(Cl)cc1` (stereo not drawn) [MWW6016] yielded an IC50 (androgen receptor [1]; Receptor binding (IC50, nM)) of 9.49 nM.
Work on `O=C(CC(Nc1ccc([N+](=O)[O-])cc1)c1ccccc1)c1ccc(Br)cc1` (stereo not drawn) [MWW6015] yielded an IC50 (androgen receptor [1]; [3]) of 2.85 nM.
`Cc1ccc(C(=O)CC(Nc2ccccc2)c2ccc(C)cc2)cc1` (stereo not drawn) [Example 5, 3-(4-methylphenyl)-3-anilino-1-(4-methylphenyl)-1-acetone] showed a melting point of 131 to 132 °C.
In the case of `O=C(CC(Nc1ccc(Cl)c([N+](=O)[O-])c1)c1ccco1)c1ccc(Br)cc1` (stereo not drawn) [MWW6031], the IC50 (androgen receptor [1]; [3]) is reported as 3.61 nM.
With `O=C(CC(Nc1ccc([N+](=O)[O-])cc1)c1ccccc1)c1ccc(Cl)cc1` (stereo not drawn) [MWW6003] the “androgen receptor antagonistic activities, IC50 compared with bicalutamide” value (androgen receptor [2]) was “close to the androgen receptor antagonist bicalutamide” and the IC50 (androgen receptor [1]; [3]) was 2.93 nM.
With `Cc1ccc(C(=O)CC(Nc2ccc(Cl)cc2)c2ccccc2)cc1` (stereo not drawn) [Example 1, 3-phenyl-3-(4-chloroanilino)-1-(4-methylphenyl)-1-acetone] the melting point was 152 to 154 °C.
Work on `Cc1ccc(C(=O)CC(Nc2ccc([N+](=O)[O-])cc2)c2ccccc2)cc1` (stereo not drawn) [Example 3, 3-phenyl-3-(4-nitroanilino)-1-(4-methylphenyl)-1-acetone] yielded a melting point of 157 to 159 °C.
In the case of `O=C(CC(Nc1ccc([N+](=O)[O-])cc1)c1ccco1)c1ccc(Cl)cc1` (stereo not drawn) [MWW6032], the “androgen receptor antagonistic activities, IC50 compared with bicalutamide” value (androgen receptor [2]) is reported as “close to the androgen receptor antagonist bicalutamide” and the IC50 (LNCaP cells) is reported as 2280 nM.
For `O=C(CC(Nc1ccc(Cl)c([N+](=O)[O-])c1)c1ccccc1)c1ccc(Br)cc1` (stereo not drawn) [MWW6022], the IC50 (androgen receptor [1]; [3]) was 4.31 nM.
Molecule `O=C(CC(Nc1ccc([N+](=O)[O-])cc1)c1ccco1)c1ccc(Br)cc1` (stereo not drawn) [MWW6033] has an IC50 (androgen receptor [1]; [3]) of 3.01 nM.
`Cc1ccc(C(=O)CC(Nc2ccc(C(=O)O)cc2)c2ccccc2)cc1` (stereo not drawn) [Example 4, 3-phenyl-3-(4-carboxylanilino)-1-(4-methylphenyl)-1-acetone] gave a melting point of 208 to 210 °C.
Molecule `O=C(CC(Nc1ccc(Cl)c([N+](=O)[O-])c1)c1ccccc1)c1ccc(Cl)cc1` (stereo not drawn) [MWW6021] has an IC50 (androgen receptor [1]; [3]) of 6.45 nM.
Work on `O=C(CC(Nc1ccc(Cl)c([N+](=O)[O-])c1)c1ccco1)c1ccc(Cl)cc1` (stereo not drawn) [MWW6030] yielded an IC50 (androgen receptor [1]; [3]) of 3.25 nM.
